According to the METLIN SMRT retention time set (Domingo-Almenara et al. 2019):

Assay: gradient 5% acetonitrile 3 min, to 50% in 2 min, to 85% in 15 min, held 3 min, 100 µL/min
Settings: column: Zorbax Extend-C18 2.1 x 50 mm; eluents: water / acetonitrile, 0.1% formic acid
Procedure, shortened: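 Pure standards were run in mixtures of ~100 molecules by HPLC coupled to a quadrupole time-of-flight mass spectrometer. The column was a Zorbax Extend-C18 (2.1 × 50 mm, 1.8 μm) at 100 μL/min, with water and acetonitrile each containing 0.1% formic acid, in positive and negative ionization mode. Dead and dwell volumes were 40 μL and 900 μL. Retention time was taken from computationally picked adduct peaks, each manually inspected, with data collected over 3 months.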

For COc1ccccc1N1CCN(S(=O)(=O)c2cc3c(s2)CCN(C(C)=O)C3)CC1, the RP-LC retention time was 838 s.

Work on CC(C)c1ccc(-n2nc(N3CCN(C(=O)c4ccco4)CC3)ccc2=O)cc1 yielded an RP-LC retention time of 842 s.

Work on CCc1ccc(C2=C(C)C(N3CCCN(C(=O)CCOC)CC3)=NS2(=O)=O)cc1 yielded an RP-LC retention time of 795 s.

Compound COCc1ncc(C)n1C1CCN(C(=O)c2ccc(Cc3c(C)noc3C)o2)C1 (stereo not drawn) has an RP-LC retention time of 602 s.

For Cc1cccc(-n2ncc(C(=O)N3CCN(c4ccccn4)CC3)c2-n2cccc2)c1, the RP-LC retention time was 688 s.

Work on CCc1ccc(NC(=O)N2C[C@@H]3CN(S(=O)(=O)c4ccccc4)C[C@H](C2)O3)cc1 yielded an RP-LC retention time of 851 s.

Compound Cc1ccc(-c2noc(Cn3ccnc3C)n2)cc1 has an RP-LC retention time of 629 s.

In the case of COc1cccc(NC(=O)N2CC(c3nc(Cc4ccccc4)no3)C2)c1OC, the RP-LC retention time is reported as 831 s.

With CCOc1c(C(=O)OC)sc2ccc(NC(=O)c3[nH]nc4c3CCc3ccccc3-4)cc12 the RP-LC retention time was 1140 s.

Work on COc1cccc(NC(=O)Nc2nccn(-c3ccc(Br)cc3)c2=O)c1 yielded an RP-LC retention time of 983 s.

Compound Cc1ccc(-c2nnc(-c3cccc(S(=O)(=O)NC(C)C(=O)O)c3)o2)cc1 (stereo not drawn) has an RP-LC retention time of 784 s.

In the case of COc1ccc(Cl)cc1S(=O)(=O)N1CCCC(C(=O)NCc2ccccn2)C1 (stereo not drawn), the RP-LC retention time is reported as 660 s.

With CCc1nc(-c2csc(S(=O)(=O)N3CCCC(C(=O)Nc4ccc(F)cc4)C3)c2)no1 (stereo not drawn) the RP-LC retention time was 1030 s.

Work on CCc1ccc(Nc2nc(C(=O)NCc3ccco3)nc3ccccc23)cc1 yielded an RP-LC retention time of 808 s.

In the case of CCc1c(C(=O)O)nnn1Cc1ccc(OC)cc1, the RP-LC retention time is reported as 734 s.

Compound CCc1cccc(NC(=O)Cn2nc3cc(C)nc(-c4ccccc4)n3c2=O)c1 has an RP-LC retention time of 899 s.

Compound COc1ccc(-c2cc(C(=O)Nc3ccccc3)nn2C2CCS(=O)(=O)C2)cc1 (stereo not drawn) has an RP-LC retention time of 911 s.

CCOc1ccc(NC(=O)Cn2cnc3nc(N4CCCC(C(=O)NC5CC5)C4)sc3c2=O)cc1 (stereo not drawn) gave an RP-LC retention time of 675 s.

For Cc1ccc(-n2nc(N3CCN(C(=O)c4cccs4)CC3)ccc2=O)cc1C, the RP-LC retention time was 830 s.

With CCOCCCNC(=O)C(C)Sc1ccc(=O)n(-c2ccc(C)c(Cl)c2)n1 (stereo not drawn) the RP-LC retention time was 797 s.

In the case of O=C(NCc1ccc(-c2noc(-c3ccc(F)c(F)c3)n2)s1)C1CC1, the RP-LC retention time is reported as 903 s.

COc1ccc(-c2nnc(-c3ccc(C)c(S(=O)(=O)N4CCN(C)CC4)c3)o2)cc1OC showed an RP-LC retention time of 646 s.

For CCc1nnc(-c2ccc(S(=O)(=O)N3CCCCC3)o2)o1, the RP-LC retention time was 824 s.

With O=C(NCc1csc(C2CCN(C(=O)c3cc(F)ccc3Cl)CC2)n1)C1CCC1 the RP-LC retention time was 713 s.

With Cc1ccc(-c2cn3c(CC(=O)NCc4ccco4)csc3n2)cc1C the RP-LC retention time was 750 s.

Cc1ccc(-c2csc(NC(=O)c3sc(-c4ccccc4)nc3C)n2)cc1 gave an RP-LC retention time of 1300 s.

Compound O=C(Cn1c(=O)cc(-c2nc(C3CC3)no2)c2ccccc21)NCc1ccccc1Cl has an RP-LC retention time of 956 s.

Compound COCCNC(=O)N1CCCN(C2=NS(=O)(=O)C(c3ccc(C)c(C)c3)=C2C)CC1 has an RP-LC retention time of 738 s.

For CN1c2ccccc2C(=O)NC12CCN(C(=O)NCCc1ccccc1)CC2, the RP-LC retention time was 728 s.

Compound Cc1cc(-c2ccc(S(=O)(=O)N3CCC(C(=O)NCc4ccccc4C)CC3)o2)n[nH]1 has an RP-LC retention time of 816 s.

With O=C(NCC1CC(=O)N(c2ccc3c(c2)OCO3)C1)c1ccccc1F (stereo not drawn) the RP-LC retention time was 664 s.

Cc1cccc(OCc2nc(-c3ccc4nnn(C)c4c3)no2)c1 gave an RP-LC retention time of 985 s.

Work on Cc1ccc(N2CCN(c3nccn4c(=O)n(CC(=O)Nc5ccc(C)c(Cl)c5)nc34)CC2)cc1 yielded an RP-LC retention time of 1060 s.

CCCCc1ccc(Nc2nc(C(=O)OCC)nc3ccccc23)cc1 gave an RP-LC retention time of 1110 s.

Work on CCS(=O)(=O)NCc1ccc2c(c1)CCN2C(=O)c1ccccc1 yielded an RP-LC retention time of 657 s.

For COc1cccc(OC)c1C(=O)Nc1ccc2c(c1)Sc1ncccc1C(=O)N2C(C)C, the RP-LC retention time was 883 s.

For COc1ccc(OC)c(Nc2c(-c3nc(C)no3)cnc3nc(C)ccc23)c1, the RP-LC retention time was 610 s.

With Cn1cc(-c2nc(C(=O)N3CCc4ccccc43)cs2)c2cccnc21 the RP-LC retention time was 1010 s.

With CCOc1ccc(C(=O)N2CCCC2c2nc(-c3ccc(OC)cc3)no2)cc1OCC (stereo not drawn) the RP-LC retention time was 982 s.

Cc1ccc(-c2cn3c(CC(=O)NCCc4ccccc4)csc3n2)cc1C showed an RP-LC retention time of 928 s.

With CC(C)NC(=O)c1nc(-c2ccnc(N3CCOCC3)c2)no1 the RP-LC retention time was 671 s.

With CCOCCCNC(=O)NCCn1cnc2cc(C(=O)N3CCCC3)ccc21 the RP-LC retention time was 577 s.

Work on COc1ccc(Cl)cc1NS(=O)(=O)c1cn(C(C)C)c2ncccc12 yielded an RP-LC retention time of 972 s.

In the case of COc1cc(NC(=O)Cc2csc3nc(-c4cccc(Br)c4)cn23)cc(OC)c1, the RP-LC retention time is reported as 974 s.

With CCCNC(=O)c1cn(-c2ccc(S(=O)(=O)N3CCCC(C)C3)cn2)cn1 (stereo not drawn) the RP-LC retention time was 884 s.

Work on O=C(NCCCc1ccccc1)C1CCCN(c2nccnc2Oc2ccccc2)C1 (stereo not drawn) yielded an RP-LC retention time of 1020 s.

Compound CCCn1cc(C2=CCN(C(=O)NC3CCCCC3)CC2)c2cccnc21 has an RP-LC retention time of 943 s.

COc1ccc(OC)c(NC(=O)N2CCC(c3cnn(-c4ccccc4)c3)CC2)c1 showed an RP-LC retention time of 956 s.

O=C1COc2ccc(S(=O)(=O)N3CCC(C(=O)NCc4ccc5c(c4)OCO5)CC3)cc2N1 gave an RP-LC retention time of 708 s.

Cn1c(CNC(=O)CN2CCN(Cc3ccc(F)cc3)C2=O)nc2ccccc21 showed an RP-LC retention time of 628 s.

Compound O=C(Nc1ccccc1Br)N1CCc2nc(-c3ccc(F)cc3)ncc2C1 has an RP-LC retention time of 1020 s.

Compound O=C(NCCCN1CCN(c2ccccc2F)CC1)c1nnc(-c2ccccc2)o1 has an RP-LC retention time of 664 s.

Compound COc1ccccc1-n1nnc(C(=O)OCc2nc(-c3ccccc3)oc2C)c1C has an RP-LC retention time of 972 s.

COc1ccc(-c2nn3c(CSc4ccccc4)nnc3s2)cc1OC showed an RP-LC retention time of 882 s.

In the case of COc1ccccc1-c1nnc(-c2cccc(S(=O)(=O)N3CCCCC3)c2)o1, the RP-LC retention time is reported as 981 s.

CCC1CN(C(=O)N2CCC(C(=O)NCCN3CCN(C)CC3)CC2)c2ccccc2O1 (stereo not drawn) gave an RP-LC retention time of 606 s.

In the case of O=C(c1cnccn1)N1CCCn2nc(-c3ccc(Cl)cc3)cc2C1, the RP-LC retention time is reported as 788 s.

For CCc1cc(=O)n(Cc2ccccc2C#N)c(N2CCCC2)n1, the RP-LC retention time was 696 s.

With COc1ccc(CN2CCN(C(=O)CCc3c(C)noc3C)CC2)cn1 the RP-LC retention time was 646 s.

COc1ccccc1CCC(=O)N1C[C@@H]2C[C@H](NC(=O)c3cccs3)[C@H]1C2 gave an RP-LC retention time of 782 s.

In the case of O=C(NCCn1nc(-n2ccnc2)ccc1=O)c1cc(-c2ccccc2)on1, the RP-LC retention time is reported as 572 s.

CCn1c(C(=O)Nc2ccc(C)c(C)c2)cc2sc(Cl)cc21 gave an RP-LC retention time of 1300 s.

In the case of Cc1cc(C(=O)Nc2nc(-c3ccc(F)cc3)c(C)s2)no1, the RP-LC retention time is reported as 976 s.

For CN(CCNC(=O)CCC(=O)N1CCc2c(c(C(=O)N3CCCC3)nn2C)C1)C1CCCCC1, the RP-LC retention time was 590 s.

Cc1cccc2c(C(=O)NC(C)C)cc(N(C)C)nc12 showed an RP-LC retention time of 614 s.

Compound COc1ccc(OC)c(CNC(=O)c2cc(-c3ccccc3)cn2C)c1 has an RP-LC retention time of 1020 s.

Compound COc1cc(C(=O)N2CCN(c3cc(C)c4ccccc4n3)CC2)cc(OC)c1OC has an RP-LC retention time of 635 s.

In the case of COC(=O)CNC(=O)N1CCCC1c1ccccc1Cl (stereo not drawn), the RP-LC retention time is reported as 754 s.

With O=C(Nc1cccc([N+](=O)[O-])c1)c1ccc2ccccc2c1O the RP-LC retention time was 1240 s.

CCN1C(=O)c2cccnc2Sc2cc(NC(=O)c3cccnc3)ccc21 showed an RP-LC retention time of 637 s.

Cn1cc2c3c(cccc31)CN(C(=O)c1ccc(Cl)cc1)CC2 showed an RP-LC retention time of 988 s.

Work on O=C(c1ccc2ccnc(N3CCN(c4ccccc4)CC3)c2c1)N1CCN(C2CCCCC2)CC1 yielded an RP-LC retention time of 625 s.

CNC(=O)N1CCCC(c2cccc(C(=O)N3CCN(c4ccccc4Cl)CC3)c2)C1 (stereo not drawn) gave an RP-LC retention time of 904 s.

With CN1c2ccc(F)cc2C(=O)NC12CCN(C(=O)Cc1ccccc1Cl)CC2 the RP-LC retention time was 774 s.

Cc1cc(Br)ccc1NC(=O)CCc1nc(C2=CCN(C)CC2)no1 gave an RP-LC retention time of 642 s.

Clc1cccc(-n2ncc3c(SCc4cccnc4)ncnc32)c1 gave an RP-LC retention time of 820 s.

Work on CCN1c2ccc(F)cc2C(=O)NC12CCN(C(=O)c1ccccc1C)CC2 yielded an RP-LC retention time of 835 s.

Work on O=S(=O)(c1ccc(Cl)c(-c2nnc(-c3ccccc3)o2)c1)N1CCOCC1 yielded an RP-LC retention time of 946 s.

COc1cc(-c2nc3nc4ccccc4nc3n2CC2CCCO2)cc(OC)c1OC (stereo not drawn) gave an RP-LC retention time of 795 s.

Compound O=S(=O)(c1cc(-c2nnc(C3CCC3)o2)co1)N1CCN(c2ccc(F)cc2)CC1 has an RP-LC retention time of 1250 s.

Compound O=[n+]1c2c(n([O-])c3ccccc31)-c1cccc3cccc-2c13 has an RP-LC retention time of 767 s.

For Cc1nc(CC(=O)NCc2ccc(F)cc2F)sc1C(=O)NCC(C)C, the RP-LC retention time was 757 s.

For Cc1ccc(CNC(=O)C2(C)CCN(S(=O)(=O)c3ccc(F)cc3)CC2)cc1, the RP-LC retention time was 965 s.

With CC(C)Cn1cc(CCNS(=O)(=O)c2cc(Cl)ccc2Cl)c2cccnc21 the RP-LC retention time was 1040 s.

Compound COCCN1CC2(CCN(S(=O)(=O)c3ccc(F)cc3F)CC2)C1c1ccncc1 (stereo not drawn) has an RP-LC retention time of 623 s.

For Cc1ccc(-c2cc(-c3cc(-c4ccc(C)cc4C)n[nH]3)[nH]n2)c(C)c1, the RP-LC retention time was 1070 s.

Compound O=C(Cn1cccc1-c1nc(-c2ccccc2)no1)N1CCCc2ccccc21 has an RP-LC retention time of 1210 s.

Work on O=C(CN1CCN(C(=O)COc2ccc(Cl)cc2Cl)CC1)c1cccs1 yielded an RP-LC retention time of 630 s.
